Results on 5 compounds are retold here after paper PMC6943664 (Molecules, 2019).

Where two headings read alike, the source gives them in different places.

The inhibition is the relative decrease from the control value, in per cent. As usually defined, the IC50 is the concentration that inhibits the measured activity by half. A word on the Ki: it is the dissociation constant of the complex between target and ligand, obtained from inhibition or displacement. Read a low Ki as higher affinity.

For one data set, the system named is CYP450s. Details: method as in PMID 19810674. Particulars: cited from earlier work.
On the set-up of data set [1]: method as in PMID 19810674. Particulars: cited from earlier work.
In data set [2] the target is T1, butyrylcholinesterase from equine serum (Equus caballus, UniProt P81908).
T1 construct: butyrylcholinesterase from equine serum; purchased Sigma Aldrich, Milan, Italy; host or cells: equine serum
The experiment in a line: biochemical. The data set is classed as biochemical. Particulars: for inhibition at 10 µM: read-out: BChE % inhibition at 10 μM. How it is done:
(§1) In vitro enzymatic screening toward ChEs was carried out according to the known Ellman’s protocol, by using eeAChE and esBChE as highly homologous and cheaper surrogates for human enzymes. The enzyme inhibition assays on human MAOs were performed by applying already reported methods.
(§2) All enzymes and reagents were purchased from Sigma Aldrich, Milan, Italy. Inhibition of human recombinant MAO A and B was assayed by monitoring the fluorescence of 4-hydroxyquinoline produced from the oxidation of substrate kynuramine, following a previously published method. Acetylcholinesterase from electric eel and butyrylcholinesterase from equine serum were used in the Ellman’s spectrophotometric method as already described. In all cases, a 96-well plate procedure was used with an Infinite M1000 Pro plate reader (Tecan, Cernusco sul Naviglio, Italy). Inhibition values were determined as IC50 values by statistical analysis using Prism (GraphPad Prism version 5.00 for Windows, GraphPad Software, San Diego, CA, USA).

In data set [3] the target is T2, Acetylcholinesterase from electric eel (Electrophorus electricus, UniProt O42275).
T2 construct: purchased Sigma Aldrich, Milan, Italy
The experiment in a line: biochemical. The data set is classed as biochemical. The following applies: AChE from electric eel; mean ±SEM of three. How it is done:
as §1, §2

The next data set concerns the target T3, human recombinant MAO A (Homo sapiens, UniProt P21397).
T3 construct: purchased Sigma Aldrich, Milan, Italy
T3 sequence (P21397 1-527): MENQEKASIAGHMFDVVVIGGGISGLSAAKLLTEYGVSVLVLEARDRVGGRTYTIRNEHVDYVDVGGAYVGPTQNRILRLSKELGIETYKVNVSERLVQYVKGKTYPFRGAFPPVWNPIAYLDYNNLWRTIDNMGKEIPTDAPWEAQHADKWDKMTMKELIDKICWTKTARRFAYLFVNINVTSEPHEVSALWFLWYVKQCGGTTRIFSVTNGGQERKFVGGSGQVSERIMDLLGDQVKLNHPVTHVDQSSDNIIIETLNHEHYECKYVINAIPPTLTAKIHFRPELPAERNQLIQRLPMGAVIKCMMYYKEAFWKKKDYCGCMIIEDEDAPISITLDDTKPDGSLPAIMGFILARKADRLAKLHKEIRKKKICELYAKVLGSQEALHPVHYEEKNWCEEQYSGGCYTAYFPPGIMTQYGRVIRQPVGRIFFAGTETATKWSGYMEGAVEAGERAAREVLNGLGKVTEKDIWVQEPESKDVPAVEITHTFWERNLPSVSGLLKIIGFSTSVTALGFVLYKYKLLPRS
Description: biochemical. The method, then: as §1, §2

Another data set relates to rat MAO B. Set-up: method as in PMID 19810674. Particulars: cited from earlier work.
The target of another data set is T4, human recombinant MAO B (Homo sapiens, UniProt P27338).
T4 construct: purchased Sigma Aldrich, Milan, Italy
T4 sequence (P27338 1-520): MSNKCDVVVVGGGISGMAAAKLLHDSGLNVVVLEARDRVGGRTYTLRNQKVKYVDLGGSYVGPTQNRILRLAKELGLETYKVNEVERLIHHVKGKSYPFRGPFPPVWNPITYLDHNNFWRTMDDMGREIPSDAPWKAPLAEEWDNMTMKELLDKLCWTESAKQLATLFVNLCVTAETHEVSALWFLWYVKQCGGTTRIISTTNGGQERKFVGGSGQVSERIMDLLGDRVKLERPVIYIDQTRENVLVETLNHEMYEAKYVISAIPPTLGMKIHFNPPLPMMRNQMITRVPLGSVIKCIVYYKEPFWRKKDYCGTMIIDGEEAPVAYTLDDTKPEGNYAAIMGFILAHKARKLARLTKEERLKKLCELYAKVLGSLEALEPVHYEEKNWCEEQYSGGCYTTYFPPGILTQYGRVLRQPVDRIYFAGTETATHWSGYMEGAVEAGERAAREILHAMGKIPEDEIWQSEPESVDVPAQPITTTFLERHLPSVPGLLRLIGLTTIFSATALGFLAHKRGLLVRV
Description: Human recombinant MAO B inhibition (kynuramine fluorescence). The data set is classed as biochemical. The following applies: for IC50: mean ±SEM of three independent experiments. The method, then: as §1, §2

The target of another data set is T5, eeAChE (Electrophorus electricus, UniProt O42275).
T5 construct: purchased Sigma Aldrich, Milan, Italy
The experiment in a line: Inhibition kinetics of eeAChE (Lineweaver-Burk). The data set is classed as biochemical. Particulars: for mechanism of inhibition toward eeAChE: Lineweaver–Burk plots; for Ki: eeAChE, inhibitor 0 to 5 μM, acetylthiocholine 33 to 200 μM. How it is done: as §2, with “Enzyme kinetics were used as tool for investigating the inhibition mechanism toward AChE. Compounds 8, bearing a meta-bromobenzyloxy substituent at coumarin C7, and 24, branched with a glycinamide chain as the variation at position 4, were chosen as prototypes bearing different head-or-tail modification schemes. […]. All” for “All”, “USA). […]” for “USA).”

Setting [4] is: human recombinant MAO, mean ±SEM of three independent experiments, read-out: MAO A IC50.
Setting [5] is: human recombinant MAO, read-out: MAO B IC50.

T5 sequence (O42275 24-633): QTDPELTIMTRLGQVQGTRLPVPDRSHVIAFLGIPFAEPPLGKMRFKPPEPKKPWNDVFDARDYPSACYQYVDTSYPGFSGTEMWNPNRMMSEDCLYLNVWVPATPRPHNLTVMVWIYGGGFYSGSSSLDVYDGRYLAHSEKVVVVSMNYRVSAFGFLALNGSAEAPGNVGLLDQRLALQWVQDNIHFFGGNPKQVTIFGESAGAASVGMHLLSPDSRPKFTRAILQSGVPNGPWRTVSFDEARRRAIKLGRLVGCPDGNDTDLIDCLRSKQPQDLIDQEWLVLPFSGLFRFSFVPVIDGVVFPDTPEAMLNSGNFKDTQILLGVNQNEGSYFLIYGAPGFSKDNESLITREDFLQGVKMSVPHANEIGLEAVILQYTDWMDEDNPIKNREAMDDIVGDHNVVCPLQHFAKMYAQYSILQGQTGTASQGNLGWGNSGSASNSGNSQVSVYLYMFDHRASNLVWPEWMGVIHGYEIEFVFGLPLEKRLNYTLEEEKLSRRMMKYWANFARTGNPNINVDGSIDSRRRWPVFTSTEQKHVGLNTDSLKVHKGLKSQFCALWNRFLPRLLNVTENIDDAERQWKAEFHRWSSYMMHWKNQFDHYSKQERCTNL
T2 sequence (O42275 24-633): as above
T1 sequence (P81908 whole entry): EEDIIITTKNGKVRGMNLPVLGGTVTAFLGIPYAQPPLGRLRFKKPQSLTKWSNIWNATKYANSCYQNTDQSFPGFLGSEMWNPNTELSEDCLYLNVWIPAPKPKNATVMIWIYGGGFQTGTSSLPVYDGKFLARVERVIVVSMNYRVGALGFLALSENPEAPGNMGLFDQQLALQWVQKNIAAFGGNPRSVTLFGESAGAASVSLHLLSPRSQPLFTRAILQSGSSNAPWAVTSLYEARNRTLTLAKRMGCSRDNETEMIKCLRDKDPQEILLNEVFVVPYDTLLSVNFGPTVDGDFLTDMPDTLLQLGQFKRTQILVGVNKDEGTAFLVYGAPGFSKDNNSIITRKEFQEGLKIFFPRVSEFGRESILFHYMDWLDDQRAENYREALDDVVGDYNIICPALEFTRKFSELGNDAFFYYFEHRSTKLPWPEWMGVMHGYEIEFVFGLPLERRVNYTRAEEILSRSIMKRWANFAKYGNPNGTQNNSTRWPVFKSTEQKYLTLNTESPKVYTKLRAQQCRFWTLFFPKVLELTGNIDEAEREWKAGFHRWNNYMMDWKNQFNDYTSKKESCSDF

On to `CNCc1cc(=O)oc2cc(OCc3cccc(Cl)c3)ccc12` [compound 3, 7-[(3-chlorobenzyl)oxy]-4-[(methylamino)methyl]-2H-chromen-2-one], for which, in the data set on CYP450s, the CYP450s liability result is recorded as “poor”. Moreover, the “blood–brain barrier penetration” value in data set [1] was “rapid”. The inhibition at 10 µM in data set [2] was 43 ± 5%. In addition, the IC50 in data set [3] is 6.2 ± 0.7 µM; at human recombinant MAO A, 0.65 ± 0.02 µM; in the data set on rat MAO B (rat enzyme), 0.013 µM; at human recombinant MAO B (MAO B IC50, human recombinant MAO), 0.0039 ± 0.0008 µM. Further, the “SI, IC50 MAO A/IC50 MAO B” value with rat MAO B (rat MAOs) is 457. Further, the “SI (MAO A/MAO B selectivity)” value at human recombinant MAO B (human MAOs) is reported as 167.
Consider `CNCc1cc(=O)oc2cc(OCc3cccc(Br)c3)ccc12` [compound 8, 7-[(3-bromobenzyl)oxy]-4-[(methylamino)methyl]-2H-chromen-2-one], for which the IC50 was 2.9 ± 0.4 µM in data set [2] (BChE from equine serum, mean ±SEM of three); 2 ± 0.04 µM in data set [3]; 2.31 ± 0.04 µM on human recombinant MAO A (setting [4]); 0.0022 ± 0.0001 µM on human recombinant MAO B (setting [5]). Moreover, the “mechanism of inhibition toward eeAChE” value on eeAChE is reported as “mixed-type”. The compound also returned a Ki at eeAChE of 2.91 µM.
Regarding `NC(=O)CNCc1cc(=O)oc2cc(OCc3cccc(Cl)c3)ccc12` [compound 24, N^2-({7-[(3-chlorobenzyl)oxy]-2-oxo-2H-chromen-4-yl}methyl)glycinamide], in data set [2], the inhibition at 10 µM was found to be 13 ± 2%. The figures for the IC50 (in data set [3]; at human recombinant MAO A (setting [4]); on human recombinant MAO B (setting [5])) were 2.2 ± 0.7 µM, 0.077 ± 0.014 µM and 0.061 ± 0.013 µM, respectively. Also, the “mechanism of inhibition toward eeAChE” value at eeAChE was “mixed-type”. At eeAChE, this compound registered a Ki of 3.63 µM.
For the compound `CN(C)C(=O)CNCc1cc(=O)oc2cc(OCc3cccc(Cl)c3)ccc12` [compound 26, N^2-({7-[(3-Chlorobenzyl)oxy]-2-oxo-2H-chromen-4-yl}methyl)-N^1,N^1-dimethylglycinamide], in data set [2], the inhibition at 10 µM was found to be 34 ± 2%. Further, the results for the IC50 (in data set [3]; on human recombinant MAO A (setting [4]); on human recombinant MAO B (setting [5])) were 4.3 ± 0.6 µM, 2.5 ± 0.5 µM and 0.03 ± 0.001 µM, respectively.
The corresponding values for `COc1cc(COc2ccc3c(CNCC(N)=O)cc(=O)oc3c2)cc(OC)c1` [compound 27, N^2-({7-[(3,5-dimethoxybenzyl)oxy]-2-oxo-2H-chromen-4-yl}methyl)glycinamide] are 41 ± 2%, 4.4 ± 0.8 µM, 5.9 ± 0.5 µM and 0.013 ± 0.001 µM.
